The source of these data is US7745619B2, “Vinca derivatives” (priority 2003, dated 2010).

One test relates to HeLa S-3 cells. Put plainly: HeLa GI50 determination (SRB growth inhibition). The class given is cell-based, human. The conditions noted are these: Homo sapiens, HeLa S3, 48 h. In short, it runs like this: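 Cells plated at 2×10^4/well; day-0 plate TCA-fixed, test compounds added at 10-fold dilutions for 2 days. SRB staining, absorbance at 490 nm; GI = 100×(T−T0)/(C−T0), GI50 from growth inhibition vs. concentration plots.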

A further test relates to MCF-7 cells. Put plainly: MCF-7 GI50 determination (crystal violet growth inhibition). It counts as cell-based, human. The conditions noted are these: Homo sapiens, MCF7, 96 h. In a few lines: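 MCF-7 cells seeded at 2×10^4 cells/well, grown 24 h drug-free, then exposed to 10-fold compound dilutions for 4 days. Glutaraldehyde-fixed cells stained with crystal violet, absorbance read at 570 nm; GI=100×(T/T0) against day-0 control OD, GI50 from growth inhibition versus concentration plots.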

[1] abbreviates: HeLa S-3 cells, 2 days of treatment, sulforhodamine B, read-out: HeLa Cells GI50.
Where [2] appears, read: MCF-7 cells, 4 days of treatment, crystal violet, read-out: MCF-7 Cells GI50.
The mark [3] stands for this setting: read-out: MCF-7 Cells GI50 (nM).

The structures appear in SMILES notation. Like-named read-outs stand apart in the source and are kept apart here.

As usually defined, the GI50 is the concentration at which growth is held to half of that of the control. Turning to `CC[C@]1(O)C[C@H]2CN(CCc3c([nH]c4ccc(CNC(C)C)cc34)[C@@](C(=O)OC)(c3cc4c(cc3OC)N(C)[C@H]3[C@@](O)(C(=O)OC)[C@H](OC(C)=O)[C@]5(CC)C=CCN6CC[C@]43[C@@H]65)C2)C1` [Example 64, 12′-(N-isopropylaminomethyl)vinblastine], the GI50 in the test on HeLa S-3 cells (setting [1]) is 900 nM; with MCF-7 cells (setting [2]), over 1000 nM.
Consider `CC[C@]1(O)C[C@H]2CN(CCc3c([nH]c4ccc(C#N)cc34)[C@@](C(=O)OC)(c3cc4c(cc3OC)N(C)[C@H]3[C@@](O)(C(=O)OC)[C@H](OC(C)=O)[C@]5(CC)C=CCN6CC[C@]43[C@@H]65)C2)C1` [Example 65, 12′-cyanovinblastine], for which the GI50 in the test on HeLa S-3 cells (setting [1]) and with MCF-7 cells (setting [2]) was 3 nM throughout.
With `CC[C@]1(O)C[C@H]2CN(CCc3c([nH]c4ccc(C#N)cc34)[C@@](C(=O)OC)(c3cc4c(cc3OC)N(C=O)[C@H]3[C@@](O)(C(=O)OC)[C@H](OC(C)=O)[C@]5(CC)C=CCN6CC[C@]43[C@@H]65)C2)C1` [Example 66, 12′-cyanovincristine], the values for the GI50 in the test with HeLa S-3 cells (setting [1]) and in the test on MCF-7 cells (setting [2]) were 10 nM and 4 nM, respectively.
Take `CC[C@]1(O)C[C@H]2CN(CCc3c([nH]c4ccc(C(=O)OCC(Cl)(Cl)Cl)cc34)[C@@](C(=O)OC)(c3cc4c(cc3OC)N(C)[C@H]3[C@@](O)(C(=O)OC)[C@H](OC(C)=O)[C@]5(CC)C=CCN6CC[C@]43[C@@H]65)C2)C1` [Example 68, 12′-(2,2,2-trichloroethylcarbonyl)vinblastine]: the GI50 with HeLa S-3 cells (read-out: HeLa Cells GI50 (nM)) is 30 nM; in the test on MCF-7 cells (setting [3]), 200 nM.
Consider `CC[C@]1(O)C[C@H]2CN(CCc3c([nH]c4ccc(C(=O)NC)cc34)[C@@](C(=O)OC)(c3cc4c(cc3OC)N(C)[C@H]3[C@@](O)(C(=O)OC)[C@H](OC(C)=O)[C@]5(CC)C=CCN6CC[C@]43[C@@H]65)C2)C1` [Example 69, 12′-N-(methylaminocarbonyl)vinblastine], for which the figures for the GI50 with HeLa S-3 cells (read-out: HeLa Cells GI50 (nM)) and in the test on MCF-7 cells (setting [3]) were 600 nM and over 1000 nM, respectively.
Regarding `CC[C@]1(O)C[C@H]2CN(CCc3c([nH]c4ccc(C(C)=O)cc34)[C@@](C(=O)OC)(c3cc4c(cc3OC)N(C)[C@H]3[C@@](O)(C(=O)OC)[C@H](OC(C)=O)[C@]5(CC)C=CCN6CC[C@]43[C@@H]65)C2)C1` [Example 70, 12′-acetylvinblastine], the 50% growth inhibitory concentration (GI50) with HeLa S-3 cells (read-out: HeLa Cells GI50 (nM)) was determined as 200 nM; in the test with MCF-7 cells (setting [3]) it was 100 nM.
Regarding `CC[C@]1(O)C[C@H]2CN(CCc3c([nH]c4ccc(C(=O)CC(C)C)cc34)[C@@](C(=O)OC)(c3cc4c(cc3OC)N(C=O)[C@H]3[C@@](O)(C(=O)OC)[C@H](OC(C)=O)[C@]5(CC)C=CCN6CC[C@]43[C@@H]65)C2)C1` [Example 71, 12′-(3-methylbutanoyl) vincristine], the figures for the GI50 in the test with HeLa S-3 cells (read-out: HeLa Cells GI50 (nM)) and with MCF-7 cells (setting [3]) were 200 nM and 100 nM, respectively.
`CCCCCC(=O)c1ccc2[nH]c3c(c2c1)CCN1C[C@H](C[C@@](O)(CC)C1)C[C@]3(C(=O)OC)c1cc2c(cc1OC)N(C=O)[C@H]1[C@@](O)(C(=O)OC)[C@H](OC(C)=O)[C@]3(CC)C=CCN4CC[C@]21[C@@H]43` [Example 72, 12′-hexanoylvincristine]: the results for the GI50 with HeLa S-3 cells (read-out: HeLa Cells GI50 (nM)) and with MCF-7 cells (setting [3]) were 40 nM and 50 nM, respectively.
Taken in the same sequence, the figures for `CC[C@]1(O)C[C@H]2CN(CCc3c([nH]c4ccc(CCC(C)C)cc34)[C@@](C(=O)OC)(c3cc4c(cc3OC)N(C=O)[C@H]3[C@@](O)(C(=O)OC)[C@H](OC(C)=O)[C@]5(CC)C=CCN6CC[C@]43[C@@H]65)C2)C1` [Example 73, 12′-(3-methylbutyl) vincristine] were 200 nM and 300 nM.
With `CCCCCCc1ccc2[nH]c3c(c2c1)CCN1C[C@H](C[C@@](O)(CC)C1)C[C@]3(C(=O)OC)c1cc2c(cc1OC)N(C=O)[C@H]1[C@@](O)(C(=O)OC)[C@H](OC(C)=O)[C@]3(CC)C=CCN4CC[C@]21[C@@H]43` [Example 74, 12′-hexylvincristine], the GI50 in the test with HeLa S-3 cells (setting [1]) amounted to 30 nM; in the test on MCF-7 cells (setting [2]) it was 40 nM.
On to `CC[C@]1(O)C[C@H]2CN(CCc3c([nH]c4ccc(C)cc34)[C@@](C(=O)OC)(c3cc4c(cc3OC)N(C=O)[C@H]3[C@@](O)(C(=O)OC)[C@H](OC(C)=O)[C@]5(CC)C=CCN6CC[C@]43[C@@H]65)C2)C1` [Example 76, 12′-methylvincristine], for which the figures for the GI50 in the test with HeLa S-3 cells (setting [1]) and with MCF-7 cells (setting [2]) were 1 nM and 3 nM, respectively.
Regarding `CCc1ccc2[nH]c3c(c2c1)CCN1C[C@H](C[C@@](O)(CC)C1)C[C@]3(C(=O)OC)c1cc2c(cc1OC)N(C)[C@H]1[C@@](O)(C(=O)OC)[C@H](OC(C)=O)[C@]3(CC)C=CCN4CC[C@]21[C@@H]43` [Example 77, 12′-ethylvinblastine], the figures for the GI50 with HeLa S-3 cells (setting [1]) and in the test on MCF-7 cells (setting [2]) were 0.3 nM and 0.6 nM, respectively.
With `CCc1ccc2[nH]c3c(c2c1)CCN1C[C@H](C[C@@](O)(CC)C1)C[C@]3(C(=O)OC)c1cc2c(cc1OC)N(C=O)[C@H]1[C@@](O)(C(=O)OC)[C@H](OC(C)=O)[C@]3(CC)C=CCN4CC[C@]21[C@@H]43` [Example 78, 12′-ethylvincristine], the GI50 in the test on HeLa S-3 cells (setting [1]) came to 5 nM; in the test with MCF-7 cells (setting [2]) it was 10 nM.
As for `CC[C@]1(O)C[C@H]2CN(CCc3c([nH]c4ccc(N(C)c5ccccc5)cc34)[C@@](C(=O)OC)(c3cc4c(cc3OC)N(C)[C@H]3[C@@](O)(C(=O)OC)[C@H](OC(C)=O)[C@]5(CC)C=CCN6CC[C@]43[C@@H]65)C2)C1` [Example 79, 12′-(N-methyl-N-phenylamino) vinblastine], the GI50 is 700 nM in the test on HeLa S-3 cells (read-out: HeLa Cells GI50 (nM)) and over 1000 nM in the test on MCF-7 cells (setting [3]).
With `CC[C@]1(O)C[C@H]2CN(CCc3c([nH]c4ccc(N)cc34)[C@@](C(=O)OC)(c3cc4c(cc3OC)N(C)[C@H]3[C@@](O)(C(=O)OC)[C@H](OC(C)=O)[C@]5(CC)C=CCN6CC[C@]43[C@@H]65)C2)C1` [Example 80, 12′-aminovinblastine], the GI50 in the test with HeLa S-3 cells (setting [1]) and with MCF-7 cells (setting [2]) was 200 nM in each case.
With `CC[C@]1(O)C[C@H]2CN(CCc3c([nH]c4ccc(N(C)C)cc34)[C@@](C(=O)OC)(c3cc4c(cc3OC)N(C)[C@H]3[C@@](O)(C(=O)OC)[C@H](OC(C)=O)[C@]5(CC)C=CCN6CC[C@]43[C@@H]65)C2)C1` [Example 81, 12′-(N,N-dimethylamino)vinblastine], the GI50 with HeLa S-3 cells (setting [1]) was found to be 30 nM; in the test on MCF-7 cells (setting [2]) it was 50 nM.
As for `CC[C@]1(O)C[C@H]2CN(CCc3c([nH]c4ccc(Nc5ccccc5)cc34)[C@@](C(=O)OC)(c3cc4c(cc3OC)N(C)[C@H]3[C@@](O)(C(=O)OC)[C@H](OC(C)=O)[C@]5(CC)C=CCN6CC[C@]43[C@@H]65)C2)C1` [Example 82, 12′-(phenylamino) vinblastine], the results for the concentration for 50% growth inhibition (GI50) in the test on HeLa S-3 cells (read-out: HeLa Cells GI50 (nM)) and in the test with MCF-7 cells (setting [3]) were 300 nM and 600 nM, respectively.
As to `CC[C@]1(O)C[C@H]2CN(CCc3c([nH]c4ccc(Nc5ccc(OC)cc5)cc34)[C@@](C(=O)OC)(c3cc4c(cc3OC)N(C)[C@H]3[C@@](O)(C(=O)OC)[C@H](OC(C)=O)[C@]5(CC)C=CCN6CC[C@]43[C@@H]65)C2)C1` [Example 83, 12′-(4-methoxyphenylamino)vinblastine], the GI50 in the test on HeLa S-3 cells (read-out: HeLa Cells GI50 (nM)) came to 300 nM; in the test with MCF-7 cells (setting [3]), 500 nM.
Take `CC[C@]1(O)C[C@H]2CN(CCc3c([nH]c4ccc(Nc5ccc(C(F)(F)F)cc5)cc34)[C@@](C(=O)OC)(c3cc4c(cc3OC)N(C)[C@H]3[C@@](O)(C(=O)OC)[C@H](OC(C)=O)[C@]5(CC)C=CCN6CC[C@]43[C@@H]65)C2)C1` [Example 84, 12′-(4-trifluoromethylphenylamino)vinblastine]: the GI50 came out at 30 nM with HeLa S-3 cells (read-out: HeLa Cells GI50 (nM)) and 500 nM in the test with MCF-7 cells (setting [3]).
Taken in the same sequence, the figures for `CC[C@]1(O)C[C@H]2CN(CCc3c([nH]c4ccc(N5CCCCC5)cc34)[C@@](C(=O)OC)(c3cc4c(cc3OC)N(C)[C@H]3[C@@](O)(C(=O)OC)[C@H](OC(C)=O)[C@]5(CC)C=CCN6CC[C@]43[C@@H]65)C2)C1` [Example 85, 12′-(1-piperidinyl) vinblastine] were 20 nM and 30 nM.
Regarding `CC[C@]1(O)C[C@H]2CN(CCc3c([nH]c4ccc(N5CCOCC5)cc34)[C@@](C(=O)OC)(c3cc4c(cc3OC)N(C)[C@H]3[C@@](O)(C(=O)OC)[C@H](OC(C)=O)[C@]5(CC)C=CCN6CC[C@]43[C@@H]65)C2)C1` [Example 86, 12′-(4-morpholino) vinblastine], the GI50 is 30 nM with HeLa S-3 cells (read-out: HeLa Cells GI50 (nM)) and 50 nM in the test with MCF-7 cells (setting [3]).
`CC[C@]1(O)C[C@H]2CN(CCc3c([nH]c4ccc(N5CCCC5)cc34)[C@@](C(=O)OC)(c3cc4c(cc3OC)N(C)[C@H]3[C@@](O)(C(=O)OC)[C@H](OC(C)=O)[C@]5(CC)C=CCN6CC[C@]43[C@@H]65)C2)C1` [Example 87, 12′-(pyrrolidin-1-yl) vinblastine]: the GI50 was 50 nM with HeLa S-3 cells (read-out: HeLa Cells GI50 (nM)) and 60 nM with MCF-7 cells (setting [3]).
For `CC[C@]1(O)C[C@H]2CN(CCc3c([nH]c4cc(I)c(I)cc34)[C@@](C(=O)OC)(c3cc4c(cc3OC)N(C=O)[C@H]3[C@@](O)(C(=O)OC)[C@H](OC(C)=O)[C@]5(CC)C=CCN6CC[C@]43[C@@H]65)C2)C1` [Example 90, 12′,13′-diiodovincristine], in that order: 30 nM and 30 nM.
As for `CC[C@]1(O)C[C@H]2CN(CCc3c([nH]c4cc(I)c(I)cc34)[C@@](C(=O)OC)(c3cc4c(cc3OC)N(C)[C@H]3[C@@](O)(C(=O)OC)[C@H](OC(C)=O)[C@]5(CC)C=CCN6CC[C@]43[C@@H]65)C2)C1` [Example 91, 12′,13′-diiodovinblastine], the GI50 with HeLa S-3 cells (setting [1]) turned out to be 60 nM; with MCF-7 cells (setting [2]) it was 200 nM.
